This note sets out measurements from US20250092039A1, “GLUTARIMIDE-CONTAINING PAN-KRAS-MUTANT DEGRADER COMPOUNDS AND USES THEREOF” (Tiger Biotherapeutics Inc., priority 2022, published 2025).

The target of one test is KRAS-G12V/RAF1 (Homo sapiens (Human), UniProt P01116, G12V). The experiment in a line: KRAS/RAF1 binding inhibition assay (AlphaScreen). In a few lines:
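Binding of GppNHp-loaded KRAS G12V to the RAF1 RBD was measured by AlphaScreen with test compound present in 2% DMSO (final), 60 min incubation at 4° C. Signals were converted to % inhibition versus DMSO, and IC50 was obtained by variable-slope nonlinear regression.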

For another test, the target named is KRAS G12V (Homo sapiens (Human), UniProt P01116, G12V). The experiment in a line: KRAS G12V degradation in SW620 cells (Western blot, DC50). Format: cell-based. Particulars: 24 hours. In short, it runs like this:
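SW620 cells (homozygous KRAS G12V) were treated with compound for 24 hours at 37° C. KRAS in lysates was measured by Western blot with fluorescent secondary antibodies and expressed relative to DMSO vehicle (100%). DC50 came from a four-parameter variable-slope dose-response fit.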

A further test concerns SW620 cells. The experiment in a line: 3D cell growth inhibition of SW620 cells carrying endogenous KRAS G12V mutation (CellTiter-Glo 3D, GI50). The format is cell-based. Particulars: Homo sapiens, SW-620, 144 h; SW620 cells, 6 days; read-out: SW620 3D cell growth GI50. In a few lines: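 SW620 cells (endogenous KRAS G12V) grown in 3D were dosed next day with compound from DMSO stocks at various concentrations, then incubated 6 days at 37° C.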
For orientation: ATP-based viability assays read luminescence as a measure of living cells.

Each structure is given as a SMILES string.

Sequence of KRAS G12V (P01116-2 other isoform, or with tags, fused parts or gaps G12V): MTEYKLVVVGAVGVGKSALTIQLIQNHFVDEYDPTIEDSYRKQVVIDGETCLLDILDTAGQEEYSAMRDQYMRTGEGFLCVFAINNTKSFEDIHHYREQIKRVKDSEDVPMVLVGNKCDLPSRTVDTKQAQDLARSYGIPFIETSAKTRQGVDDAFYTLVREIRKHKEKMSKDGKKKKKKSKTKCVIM
Sequence of KRAS-G12V/RAF1 (P01116-2 other isoform, or with tags, fused parts or gaps G12V): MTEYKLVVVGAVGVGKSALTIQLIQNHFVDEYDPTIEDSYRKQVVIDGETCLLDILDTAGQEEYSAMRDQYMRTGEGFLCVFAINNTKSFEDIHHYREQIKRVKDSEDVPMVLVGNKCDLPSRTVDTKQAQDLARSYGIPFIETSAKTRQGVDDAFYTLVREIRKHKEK

As for `CCc1c(F)ccc2cc(O)cc(-c3ncc4c(N5CCOCC6(CCO6)C5)nc(OCC5(CN6CCC7(CC6)CC(CN6CCN(c8ccc9c(c8)CN([C@H]8CCC(=O)NC8=O)C9=O)CC6)C7)CC5)nc4c3F)c12` (stereo partly drawn) [Compound 124, (3S)-3-(5-(4-((7-((1-(((7-(8-ethyl-7-fluoro-3-hydroxynaphthalen-1-yl)-8-fluoro-4-(1,6-dioxa-9-azaspiro[3.6]decan-9-yl)pyrido[4,3-d]pyrimidin-2-yl)oxy)methyl)cyclopropyl)methyl)-7-azaspiro[3.5]nonan-2-yl)methyl)piperazin-1-yl)-1-oxoisoindolin-2-yl)piperidine-2,6-dione], the IC50 (in general, the point on the concentration scale where inhibition reaches its midpoint) at KRAS-G12V/RAF1 lay within 20 to 200 nM. The 50% degradation concentration (DC50) (usually the concentration at which degradation of the target reaches its halfway point) at KRAS G12V was 1 to 10 nM. Also, the 50% growth inhibitory concentration (GI50) – broadly, the concentration at which growth is held to half of that of the control – in the test with SW620 cells was less than 10 nM.
In the same order, the values of `CCc1cccc2cc(O)cc(-c3ncc4c(N5CCC[C@@](C)(O)C5)nc(OCC5(CN6CC[C@H](CN7CC8(CCN(c9ccc%10c(c9)CN(C9CCC(=O)NC9=O)C%10=O)CC8)C7)C6)CC5)nc4c3F)c12` (stereo partly drawn) [Compound 22, 3-(5-(2-(((S)-1-((1-(((7-(8-ethyl-3-hydroxynaphthalen-1-yl)-8-fluoro-4-((R)-3-hydroxy-3-methylpiperidin-1-yl)pyrido[4,3-d]pyrimidin-2-yl)oxy)methyl)cyclopropyl)methyl)pyrrolidin-3-yl)methyl)-2,7-diazaspiro[3.5]nonan-7-yl)-1-oxoisoindolin-2-yl)piperidine-2,6-dione] are less than 20 nM, more than 100 nM and 10 to 100 nM.
In the same order, the values of `Cc1nc(N)cc(-c2ncc3c(N4CCC[C@@](C)(O)C4)nc(OCC4(CN5CCC6(CC5)CC(CN5CCN(c7ccc8c(c7)CN([C@H]7CCC(=O)NC7=O)C8=O)CC5)C6)CC4)nc3c2F)c1C(F)(F)F` [Compound 26, (S)-3-(5-(4-((7-((1-(((7-(6-amino-2-methyl-3-(trifluoromethyl)pyridin-4-yl)-8-fluoro-4-((R)-3-hydroxy-3-methylpiperidin-1-yl)pyrido[4,3-d]pyrimidin-2-yl)oxy)methyl)cyclopropyl)methyl)-7-azaspiro[3.5]nonan-2-yl)methyl)piperazin-1-yl)-1-oxoisoindolin-2-yl)piperidine-2,6-dione] are more than 200 nM, more than 100 nM and more than 100 nM.
The compound `C[C@@]1(O)CCCN(c2nc(OCC3(CN4CCC5(CC4)CC(F)(CN4CCN(c6ccc7c(c6)CN([C@H]6CCC(=O)NC6=O)C7=O)CC4)C5)CC3)nc3c(F)c(-c4cc(O)cc5ccc(F)c(F)c45)ncc23)C1` [Compound 174, (S)-3-(5-(4-((7-((1-(((7-(7,8-difluoro-3-hydroxynaphthalen-1-yl)-8-fluoro-4-((R)-3-hydroxy-3-methylpiperidin-1-yl)pyrido[4,3-d]pyrimidin-2-yl)oxy)methyl)cyclopropyl)methyl)-2-fluoro-7-azaspiro[3.5]nonan-2-yl)methyl)piperazin-1-yl)-1-oxoisoindolin-2-yl)piperidine-2,6-dione] registered an IC50 at KRAS-G12V/RAF1 of 20 to 200 nM. Besides, on KRAS G12V, the DC50 was less than 1 nM. Besides, the GI50 in the test with SW620 cells is less than 10 nM.
In the same order, the values of `CCc1cccc2cc(O)cc(-c3ncc4c(N5CCC[C@@](C)(O)C5)nc(OCC5(CN6CCC7(CC6)CC(F)(CN6CCN(c8ccc9c(c8)CN([C@H]8CCC(=O)NC8=O)C9=O)CC6)C7)CC5)nc4c3F)c12` [Compound 173, (S)-3-(5-(4-((7-((1-(((7-(8-ethyl-3-hydroxynaphthalen-1-yl)-8-fluoro-4-((R)-3-hydroxy-3-methylpiperidin-1-yl)pyrido[4,3-d]pyrimidin-2-yl)oxy)methyl)cyclopropyl)methyl)-2-fluoro-7-azaspiro[3.5]nonan-2-yl)methyl)piperazin-1-yl)-1-oxoisoindolin-2-yl)piperidine-2.6-dione] are 20 to 200 nM, less than 1 nM and less than 10 nM.
In the case of `CCc1c(F)ccc2cc(O)cc(-c3ncc4c(N5CCC=CCC5)nc(OCC5(CN6CCC7(CC6)CC(CN6CCN(c8ccc9c(c8)CN([C@H]8CCC(=O)NC8=O)C9=O)CC6)C7)CC5)nc4c3F)c12` [Compound 4, (S)-3-(5-(4-((7-((1-(((7-(8-ethyl-7-fluoro-3-hydroxynaphthalen-1-yl)-8-fluoro-4-(2,3,6,7-tetrahydro-1H-azepin-1-yl)pyrido[4,3-d]pyrimidin-2-yl)oxy)methyl)cyclopropyl)methyl)-7-azaspiro[3.5]nonan-2-yl)methyl)piperazin-1-yl)-1-oxoisoindolin-2-yl)piperidine-2,6-dione], at KRAS-G12V/RAF1, the IC50 was more than 200 nM. The same compound came in with a DC50 at KRAS G12V of more than 100 nM. Moreover, the GI50 with SW620 cells is more than 100 nM.
`CCc1cccc2cc(O)cc(-c3ncc4c(N5CCCOCC5)nc(OCC5(CN6CCC(CN7CCN(c8ccc9c(c8)CN([C@H]8CCC(=O)NC8=O)C9=O)CC7)CC6)CC5)nc4c3F)c12` [Compound 110, (S)-3-(5-(4-((1-((1-(((7-(8-ethyl-3-hydroxynaphthalen-1-yl)-8-fluoro-4-(1,4-oxazepan-4-yl)pyrido[4,3-d]pyrimidin-2-yl)oxy)methyl)cyclopropyl)methyl)piperidin-4-yl)methyl)piperazin-1-yl)-1-oxoisoindolin-2-yl)piperidine-2,6-dione] registered an IC50 on KRAS-G12V/RAF1 of more than 200 nM. Also, the DC50 on KRAS G12V was more than 100 nM. Further, the GI50 with SW620 cells is more than 100 nM.
`CCc1c(F)ccc2cc(O)cc(-c3ncc4c(N5CCC[C@@](C)(O)C5)nc(OCC5(CN6CC(N7CCC8(CC7)CN(c7ccc9c(c7)CN(C7CCC(=O)NC7=O)C9=O)C8)C6)CC5)nc4c3F)c12` (stereo partly drawn) [Compound 152, 3-(5-(7-(1-((1-(((7-(8-ethyl-7-fluoro-3-hydroxynaphthalen-1-yl)-8-fluoro-4-((R)-3-hydroxy-3-methylpiperidin-1-yl)pyrido[4,3-d]pyrimidin-2-yl)oxy)methyl)cyclopropyl)methyl)azetidin-3-yl)-2,7-diazaspiro[3.5]nonan-2-yl)-1-oxoisoindolin-2-yl)piperidine-2,6-dione]: the IC50 at KRAS-G12V/RAF1 was in the range of 20 to 200 nM. At KRAS G12V, the DC50 was less than 1 nM. The GI50 in the test on SW620 cells was less than 10 nM.
In the same order, the values of `CCc1cccc2cc(O)cc(-c3ncc4c(N(C)C5CC5)nc(OCC5(CN6CCC(CN7CCN(c8ccc9c(c8)CN([C@H]8CCC(=O)NC8=O)C9=O)CC7)CC6)CC5)nc4c3F)c12` [Compound 15, (S)-3-(5-(4-((1-((1-(((4-(cyclopropyl(methyl)amino)-7-(8-ethyl-3-hydroxynaphthalen-1-yl)-8-fluoropyrido[4,3-d]pyrimidin-2-yl)oxy)methyl)cyclopropyl)methyl)piperidin-4-yl)methyl)piperazin-1-yl)-1-oxoisoindolin-2-yl)piperidine-2,6-dione] are more than 200 nM, more than 100 nM and more than 100 nM.
In the same order, the values of `CCc1cccc2cc(O)cc(-c3ncc4c(N5CCC[C@@](C)(O)C5)nc(OCC5(CN6CC7(CCC(N8CCN(c9ccc%10c(c9)CN([C@H]9CCC(=O)NC9=O)C%10=O)CC8)CC7)C6)CC5)nc4c3F)c12` [Compound 141, (S)-3-(5-(4-(2-((1-(((7-(8-ethyl-3-hydroxynaphthalen-1-yl)-8-fluoro-4-((R)-3-hydroxy-3-methylpiperidin-1-yl)pyrido[4,3-d]pyrimidin-2-yl)oxy)methyl)cyclopropyl)methyl)-2-azaspiro[3.5]nonan-7-yl)piperazin-1-yl)-1-oxoisoindolin-2-yl)piperidine-2,6-dione] are less than 20 nM, more than 100 nM and more than 100 nM.
In the same order, the values of `C[C@@]1(O)CCCN(c2nc(OCC3(CN4CCC5(CC4)CC(N4CCN(c6ccc7c(c6)CN([C@H]6CCC(=O)NC6=O)C7=O)CC4)C5)CC3)nc3c(F)c(-c4cc(O)cc5ccc(F)c(F)c45)ncc23)C1` [Compound 170, (S)-3-(5-(4-(7-((1-(((7-(7,8-difluoro-3-hydroxynaphthalen-1-yl)-8-fluoro-4-((R)-3-hydroxy-3-methylpiperidin-1-yl)pyrido[4,3-d]pyrimidin-2-yl)oxy)methyl)cyclopropyl)methyl)-7-azaspiro[3.5]nonan-2-yl)piperazin-1-yl)-1-oxoisoindolin-2-yl)piperidine-2,6-dione] are 20 to 200 nM, 1 to 10 nM and less than 10 nM.
For the compound `CCc1c(F)ccc2cc(O)cc(-c3ncc4c(N5CCC[C@@](C)(O)C5)nc(OCC5(CN6CCC7(CC6)CN(C6CN(c8ccc9c(c8)CN(C8CCC(=O)NC8=O)C9=O)C6)C7)CC5)nc4c3F)c12` (stereo partly drawn) [Compound 163, 3-[5-[3-[7-[[1-[[7-(8-ethyl-7-fluoro-3-hydroxy-1-naphthyl)-8-fluoro-4-[(3R)-3-hydroxy-3-methyl-1-piperidyl]pyrido[4,3-d]pyrimidin-2-yl]oxymethyl]cyclopropyl]methyl]-2,7-diazaspiro[3.5]nonan-2-yl]azetidin-1-yl]-1-oxo-isoindolin-2-yl]piperidine-2,6-dione], on KRAS-G12V/RAF1, the IC50 is less than 20 nM. On KRAS G12V, this compound had a DC50 of less than 1 nM. For the same compound, the GI50 in the test with SW620 cells was less than 10 nM.
In the same order, the values of `CCc1c(F)ccc2cc(O)cc(-c3ncc4c(N5CCC[C@@](C)(O)C5)nc(OCC5(CN6CCC(N7CCC8(CCN(c9ccc%10c(c9)CN(C9CCC(=O)NC9=O)C%10=O)CC8)CC7)CC6)CC5)nc4c3F)c12` (stereo partly drawn) [Compound 145, 3-(5-(9-(1-((1-(((7-(8-ethyl-7-fluoro-3-hydroxynaphthalen-1-yl)-8-fluoro-4-((R)-3-hydroxy-3-methylpiperidin-1-yl)pyrido[4,3-d]pyrimidin-2-yl)oxy)methyl)cyclopropyl)methyl)piperidin-4-yl)-3,9-diazaspiro[5.5]undecan-3-yl)-1-oxoisoindolin-2-yl)piperidine-2,6-dione] are less than 20 nM, 1 to 10 nM and less than 10 nM.
